What is called IC50 is the concentration at which inhibition is half-maximal.

In this assay the target is T1, Pancreatic triacylglycerol lipase (Sus scrofa, UniProt P00591).
T1 sequence (P00591 whole entry): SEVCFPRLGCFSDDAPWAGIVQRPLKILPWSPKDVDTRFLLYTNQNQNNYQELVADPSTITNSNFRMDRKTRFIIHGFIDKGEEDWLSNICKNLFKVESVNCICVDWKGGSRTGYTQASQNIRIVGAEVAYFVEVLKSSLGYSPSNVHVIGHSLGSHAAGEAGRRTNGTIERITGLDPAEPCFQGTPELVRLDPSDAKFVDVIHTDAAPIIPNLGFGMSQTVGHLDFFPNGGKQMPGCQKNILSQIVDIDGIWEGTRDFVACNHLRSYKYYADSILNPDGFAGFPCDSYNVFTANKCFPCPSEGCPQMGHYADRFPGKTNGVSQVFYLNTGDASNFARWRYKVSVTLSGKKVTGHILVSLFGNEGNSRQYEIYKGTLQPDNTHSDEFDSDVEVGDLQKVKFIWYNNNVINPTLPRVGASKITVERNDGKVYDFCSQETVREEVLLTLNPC
The experiment in a line: Inhibition of porcine pancreatic lipase using p-nitrophenylbutyrate as substrate assessed as formation of p-nitrophenol preincubated for 15 mins followed by substrate addition measured after 15 mins.

In the case of `O=c1cc(O)cc2oc(-c3ccc(O)cc3)c(O[C@@H]3O[C@H](CO)[C@@H](O)[C@H](O)[C@H]3O)c(O)c1-2` [3,4',5,7-Tetrahydroxyflavone-3-glucoside], the IC50 is more than 70 µM.

For the molecule `O=c1cc(O)cc2oc(-c3ccc(O)c(O)c3)c(O[C@@H]3O[C@H](CO)[C@@H](O)[C@H](O)[C@H]3O)c(O)c1-2` [Quercetin 3-O-beta-D-glucoside], the IC50 is more than 70 µM.

The values above are taken from BindingDB's records for doi:10.1016/j.bmcl.2015.04.045 (Chungbuk National University, 2015).
